According to patent US20210115040A1, “OGA INHIBITOR COMPOUNDS” (Janssen Pharmaceutica NV, priority 2018, published 2021):

Assays:
OGA = target: T1, OGA (Homo sapiens, UniProt O60502); assay: OGA cellular assay (ICC detection of O-GlcNAcylated proteins in HEK293 cells inducible for P301L mutant human Tau); format: cell-based; conditions: for Emax: HEK293, HEK293 cells inducible for P301L mutant human Tau; for Emax / Cellular Emax (%): maximum = Thiamet G 200 uM; for EC50 / Cellular Emax (%): HEK293 cells inducible for P301L mutant human Tau; for EC50: 6 hours incubation, read-out: Cellular hOGA, pEC50 (converted)
T1 construct: HEK293 cells inducible for P301L mutant human Tau (isoform 2N4R) were established at Janssen; endogenous in cells; host or cells: HEK293 cells inducible for P301L mutant human Tau (2N4R)
T1 sequence (O60502 1-916): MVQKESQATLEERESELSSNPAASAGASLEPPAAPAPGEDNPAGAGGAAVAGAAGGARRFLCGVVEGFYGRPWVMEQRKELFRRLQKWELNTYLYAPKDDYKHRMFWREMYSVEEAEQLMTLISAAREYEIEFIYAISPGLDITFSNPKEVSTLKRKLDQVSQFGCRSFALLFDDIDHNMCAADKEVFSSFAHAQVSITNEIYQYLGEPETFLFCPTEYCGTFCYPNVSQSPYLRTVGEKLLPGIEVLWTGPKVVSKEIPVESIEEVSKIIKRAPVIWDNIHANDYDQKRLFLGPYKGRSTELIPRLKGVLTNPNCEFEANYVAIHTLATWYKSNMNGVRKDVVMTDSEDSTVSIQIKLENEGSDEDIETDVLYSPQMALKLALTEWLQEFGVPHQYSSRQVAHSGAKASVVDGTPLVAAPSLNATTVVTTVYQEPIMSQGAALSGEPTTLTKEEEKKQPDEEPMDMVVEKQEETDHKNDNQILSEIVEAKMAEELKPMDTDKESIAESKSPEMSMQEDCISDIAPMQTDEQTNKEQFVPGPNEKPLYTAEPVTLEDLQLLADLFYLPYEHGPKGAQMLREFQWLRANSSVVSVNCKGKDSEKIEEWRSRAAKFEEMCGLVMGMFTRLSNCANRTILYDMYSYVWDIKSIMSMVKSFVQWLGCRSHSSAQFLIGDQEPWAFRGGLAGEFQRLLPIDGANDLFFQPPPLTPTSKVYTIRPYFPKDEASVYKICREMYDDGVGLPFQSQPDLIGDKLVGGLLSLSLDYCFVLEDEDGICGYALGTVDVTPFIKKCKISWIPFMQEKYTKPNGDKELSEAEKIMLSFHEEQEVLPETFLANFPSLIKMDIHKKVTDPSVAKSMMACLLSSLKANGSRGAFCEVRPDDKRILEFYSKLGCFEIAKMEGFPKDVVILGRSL
Protocol: HEK293 cells inducible for P301L mutant human Tau (isoform 2N4R) were established at Janssen. Thiamet-G was used for both plate validation (high control) and as reference compound (reference EC50 assay validation). OGA inhibition is evaluated through the immunocytochemical (ICC) detection of O-GlcNAcylated proteins by the use of a monoclonal antibody (CTD110.6; Cell Signaling, #9875) detecting 0-GlcNAcylated residues as previously described (Dorfmueller et al. 2010 Chemistry & biology, 17:1250). Inhibition of OGA will result in an increase of O-GlcNAcylated protein levels resulting in an increased signal in the experiment. Cell nuclei are stained with Hoechst to give a cell culture quality control and a rough estimate of immediate compounds toxicity, if any. ICC pictures are imaged with a Perkin Elmer Opera Phenix plate microscope and quantified with the provided software Perkin Elmer Harmony 4.1.
Cells were propagated in DMEM high Glucose (Sigma, #D5796) following standard procedures. 2 days before the cell assay cells are split, counted and seeded in Poly-D-Lysine (PDL) coated 96-wells (Greiner, #655946) plate at a cell density of 12,000 cells per cm^2 (4,000 cells per well) in 100 μl of Assay Medium (Low Glucose medium is used to reduce basal levels of GlcNAcylation) (Park et al. 2014 The Journal of biological chemistry 289:13519). At the day of compound test medium from assay plates was removed and replenished with 90 μl of fresh Assay Medium. 10 μl of compounds at a 10fold final concentration were added to the wells. Plates were centrifuged shortly before incubation in the cell incubator for 6 hours. DMSO concentration was set to 0.2%. Medium is discarded by applying vacuum. For staining of cells medium was removed and cells washed once with 100 μl D-PBS (Sigma, #D8537). From next step onwards unless other stated assay volume was always 50 μl and incubation was performed without agitation and at room temperature. Cells were fixed in 50 μl of a 4% paraformaldehyde (PFA, Alpha aesar, #043368) PBS solution for 15 minutes at room temperature. […] Before analysis samples were washed 2 times manually for 5 minutes in ICC base buffer.
Imaging is performed using Perkin Elmer Phenix Opera using a water 20× objective and recording 9 fields per well. Intensity readout at 488 nm is used as a measure of O-GlcNAcylation level of total proteins in wells. To assess potential toxicity of compounds nuclei were counted using the Hoechst staining. IC50-values are calculated using parametric non-linear regression model fitting. As a maximum inhibition Thiamet G at a 200 uM concentration is present on each plate. In addition, a concentration response of Thiamet G is calculated on each plate.

[1] = target: T2, recombinant human Meningioma Expressed Antigen 5 (MGEA5), also referred to as O-GlcNAcase (OGA) (Homo sapiens, UniProt O60502); assay: OGA biochemical assay (inhibition of FM-GlcNAc hydrolysis, fluorescence); conditions: FM-GlcNAc substrate; for IC50: 6 h at room temperature, read-out: Enzymatic hOGA, pIC50 (converted); for Emax / Enzymatic Emax (%): maximal effect; for Emax: read-out: Enzymatic Emax (%)
T2 construct: Full length OGA enzyme was purchased at OriGene (cat #TP322411); purchased OriGene TP322411
T2 sequence (O60502 1-916): T1 sequence (O60502 1-916)
Procedure, shortened: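 Full-length OGA (2 nM) pre-incubated 60 min at room temperature with compound, then FM-GlcNAc (100 uM final) hydrolysed 6 h at room temperature in 200 mM citrate/phosphate pH 7.2 with 0.005% Tween-20. Stopped with carbonate pH 11.0; fluorescein read at ex 485/em 538 nm. IC50 and Hill coefficient from curve fit between no-inhibitor and saturating-standard controls.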

Row | SMILES | Emax (OGA) | EC50 (OGA) | IC50 [1] | Emax [1] | Cellular Emax (%) (OGA) | Enzymatic Emax (%) [1]
1 | Cc1cc(C[C@H]2CCCN(C(C)c3ccc4oc(C)nc4n3)C2)cc(C(F)(F)F)n1 (mixture of isomers) [Compound 24ab] | 91% | 50.1 nM | 12.6 nM | 103% |  | 
2 | COc1cc(NC[C@H]2CCCN(C(C)c3ccc4sc(C)nc4n3)C2)cc(C)n1 (stereo partly shown) [Compound 109] | 89% | 10 nM | 6.31 nM | 100% |  | 
3 | Cc1cc(C[C@@H]2CCN([C@@H](C)c3cc4nc(C)sc4cc3F)C2)cc(C)n1 [Compound 60] | 66% | 63.1 nM | 2 nM | 99% |  | 
4 | Cc1cc(OC[C@H]2CCCN([C@@H](C)c3ccc4sc(C)nc4n3)C2)nc(C)n1 [Compound 49a] | -2% | > 1000 nM | 2000 nM | 84% |  | 
5 | Cc1cc(C2CCCN(C(C)c3ccc4sc(C)nc4n3)C2)c(F)c(C)n1 (single isomer, unassigned) [Compound 78] |  | 79.4 nM | 10 nM |  | 80% | 93%
6 | COc1cc(CN[C@H]2CCCN(C(C)c3ccc4sc(C)nc4n3)C2)cc(C)n1 (stereo partly shown) [Compound 107] | 60% | 794 nM | 63.1 nM | 93% |  | 
7 | Cc1cc(C2CCCN(C(C)c3ccc4oc(C)nc4n3)C2)cc(C(F)(F)F)n1 (racemic) [Compound 19] | 68% | 501 nM | 20 nM | 99% |  | 
8 | Cc1cc(C[C@H]2CCCN(C(C)c3ccc4nc(C)sc4c3)C2)cc(C)n1 (mixture of isomers) [Compound 51] |  | > 1000 nM | 501 nM | 99% |  | 
9 | Cc1cc(C[C@H]2CCN(C(C)c3cnc4nc(C)oc4c3)C2)cc(C)n1 (stereo partly shown) [Compound 63] | 77% | 158 nM | 100 nM | 103% |  | 
10 | Cc1cc(C[C@H]2CCCN(C(C)c3ccc4oc(C)nc4n3)C2)cc(C)n1 (mixture of isomers) [Compound 22] | 91% | 12.6 nM | 3.16 nM | 101% |  | 
11 | Cc1cc(C2CCCN(C(C)c3cc4nc(C)sc4cc3F)C2)cc(C)n1 (stereo not shown) [Compound 89] | 64% | 15.8 nM | 6.31 nM | 102% |  | 
12 | Cc1cc(NC[C@H]2CCCN(C(C)c3ccc4sc(C)nc4n3)C2)nc(C)n1 (stereo partly shown) [Compound 108] | 84% | 12.6 nM | 7.94 nM | 101% |  | 
13 | Cc1cc([C@H]2CCCN(C(C)c3nc4nc(C)[nH]c4cc3F)C2)cc(C)n1 (stereo partly shown) [Compound 82] | 39% | > 1000 nM | 126 nM | 97% |  | 
14 | Cc1cc([C@H]2CCCN([C@H](C)c3nc4nc(C)sc4cc3F)C2)cc(C)n1 (single isomer, unassigned) [Compound 86] | 12% | > 1000 nM | 1580 nM | 95% |  | 
15 | Cc1cc(C2CCCN(C(C)c3ccc4sc(C)nc4n3)C2)c(F)c(C)n1 (single isomer, unassigned) [Compound 77] |  | > 1000 nM | 2510 nM | 75% | −10% | 
16 | Cc1cc(NCC2CCCN(C(C)c3ccc4sc(C)nc4n3)C2)cc(C)n1 (single isomer, unassigned) [Compound 106] | 92% | 6.31 nM | 5.01 nM | 99% |  | 
17 | Cc1cc(C[C@H]2CCCN(Cc3cnc4nc(C)oc4c3)C2)cc(C)n1 [Compound 37] | 2% | > 1000 nM | 7940 nM | 55% |  | 
18 | Cc1cc(O[C@@H]2CCN(C(C)c3ccc4sc(C)nc4n3)C2)cc(C)n1 (single isomer, unassigned) [Compound 73] |  | > 1000 nM | > 10000 nM |  | −9% | 8%
19 | Cc1cc(OC[C@H]2CCCN(C(C)c3cc4nc(C)sc4cc3F)C2)cc(C)n1 (stereo partly shown) [Compound 98] | 60% | 12.6 nM | 2.51 nM | 102% |  | 
20 | COc1cc(N[C@H]2CCCN(C(C)c3ccc4sc(C)nc4n3)C2)cc(C)n1 (stereo partly shown) [Compound 83] | 78% | 102 nM | 10 nM | 96% |  | 
21 | Cc1cc(OC[C@@H]2CCN(C(C)c3ccc4sc(C)nc4n3)C2)cc(C)n1 (mixture of isomers) [Compound 47] | 11% | > 1000 nM | 398 nM | 99% |  | 
22 | Cc1cc(C[C@H]2CCCN(C(C)c3ccc4oc(C)nc4n3)C2)cc(OC(F)(F)F)n1 (mixture of isomers) [Compound 25ab] | 86% | 200 nM | 15.8 nM | 101% |  | 
23 | Cc1cc(CO[C@H]2CCCN(C(C)c3cc4nc(C)sc4cc3F)C2)cc(C)n1 (mixture of isomers) [Compound 99] | 66% | 63.1 nM | 3.16 nM | 99% |  | 
24 | Cc1cc(CO[C@@H]2CCCN(C(C)c3ccc4sc(C)nc4n3)C2)cc(C)n1 (stereo partly shown) [Compound 68] | 27% | > 1000 nM | 126 nM | 98% |  | 
25 | Cc1cc(OC[C@H]2CCCN(C(C)c3ccc4sc(C)nc4n3)C2)nc(C)n1 (mixture of isomers) [Compound 49ab] | 68% | 100 nM | 12.6 nM | 100% |  | 
26 | Cc1cc(OC[C@H]2CCCN(C(C)c3nc4nc(C)sc4cc3F)C2)cc(C)n1 (stereo partly shown) [Compound 91] | 66% | 7.94 nM | 3.98 nM | 101% |  | 
27 | Cc1cc(C[C@H]2CCN(C(C)c3cnc4[nH]c(C)nc4c3)C2)cc(C(F)(F)F)n1 (stereo partly shown) [Compound 104] | 20% | > 1000 nM | 501 nM | 94% |  | 
28 | Cc1cc(CO[C@H]2CCCN(C(C)c3ccc4sc(C)nc4n3)C2)cc(C)n1 (single isomer, unassigned) [Compound 67] | 5% | > 1000 nM | 501 nM | 94% |  | 
29 | Cc1cc(C[C@H]2CCCN(C(C)c3cnc4oc(C)nc4c3)C2)cc(C)n1 (mixture of isomers) [Compound 30] | 79% | 200 nM | 12.6 nM | 102% |  | 
